Patent US10662187B2, “Bruton's tyrosine kinase inhibitors” (Zibo Biopolar Changsheng Pharmaceutical Co. Ltd., priority 2016, dated 2020)
Where two headings read alike, the source gives them in different places.

Key:
Assay type in all cases: biochemical
[1] = molecular target: LCK (Homo sapiens (Human), UniProt P06239); test: LCK kinase assay (HTRF); details: [ATP]=20 μM, LCK=0.2 nM
Procedure: (§1) Btk Kinase Assay and Other Kinases Assay Btk kinase activity was determined using a homogenous time resolved fluorescence (HTRF) methodology. Measurements were performed in a reaction volume of 15 μL using 384-well assay plates. Kinase enzyme, inhibitor, ATP and 1 μM peptide substrate were incubated in a reaction buffer compose of Hepes 50 mM (pH7.0), NaN3 0.02%, BSA 0.01%, Orthocanadate 0.1 mM. After one hour, the kinase reaction was quenched by the addition of […] antibody and XL-665 in 1×Detection buffer containing 60 mM EDTA (Cisbio), and the mixture was allowed to incubate for one hour. The HTRF signal was measured on a multimode plate reader (EnVision® Multilabel Reader, Perkin Elmer) with an excitation wavelength (λEx) of 330 nm and detection wavelengths (λEm) of 615 and 665 nm. Activity was determined by the ratio of the fluorescence at 665 nm to that at 615 nm. For each compound, enzyme activity as measured at various concentrations of compound, Negative control reactions were performed in the absence of inhibitor in two replicates and eight no enzyme controls were used to determine baseline fluorescence levels. I[…] were obtained according to the equation: […] For LYN assay, [ATP]=20 μM, LYN=0.12 nM. For LCK assay, [ATP]=20 μM, LCK=0.2 nM. For BLK assay, [ATP]=20 μM, BLK=0.6 nM.

[2] = molecular target: BLK (Homo sapiens (Human), UniProt P51451); test: BLK kinase assay (HTRF); details: [ATP]=20 μM, BLK=0.6 nM
Procedure: as §1

[3] = molecular target: BTK (Homo sapiens (Human), UniProt Q06187); test: Btk kinase assay (HTRF); details: [ATP]=80 μM, BTK=3.4 nM
Summary of the method: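 HTRF read-out with enzyme, inhibitor, ATP and 1 μM peptide substrate in 50 mM Hepes pH 7.0, 0.02% NaN3, 0.01% BSA, 0.1 mM orthovanadate. Activity measured across compound concentrations against no-inhibitor controls, with no-enzyme wells as baseline.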

[4] = molecular target: EGFR (Homo sapiens (Human), UniProt P00533); test: EGFR kinase assay
Procedure: Btk Kinase Assay and Other Kinases Assay Btk kinase activity was determined using a homogenous time resolved fluorescence (HTRF) methodology. Measurements were performed in a reaction volume of 15 μL using 384-well assay plates. Kinase enzyme, inhibitor, ATP and 1 μM peptide substrate were incubated in a reaction buffer compose of Hepes 50 mM (pH7.0), NaN3 0.02%, BSA 0.01%, Orthocanadate 0.1 mM. After one hour, the kinase reaction was quenched by the addition of […] antibody and XL-665 in 1×Detection buffer containing 60 mM EDTA (Cisbio), and the mixture was allowed to incubate for one hour. The HTRF signal was measured on a multimode plate reader (EnVision® Multilabel Reader, Perkin Elmer) with an excitation wavelength (λEx) of 330 nm and detection wavelengths (λEm) of 615 and 665 nm. Activity was determined by the ratio of the fluorescence at 665 nm to that at 615 nm. For each compound, enzyme activity as measured at various concentrations of compound, Negative control reactions were performed in the absence of inhibitor in two replicates and eight no enzyme controls were used to determine baseline fluorescence levels. I[…] were obtained according to the equation: […]

[5] = molecular target: LYN (Homo sapiens (Human), UniProt P07948); test: LYN kinase assay (HTRF); details: [ATP]=20 μM, LYN=0.12 nM
Procedure: as §1

Chain of BTK (Q06187 whole entry, species assumed): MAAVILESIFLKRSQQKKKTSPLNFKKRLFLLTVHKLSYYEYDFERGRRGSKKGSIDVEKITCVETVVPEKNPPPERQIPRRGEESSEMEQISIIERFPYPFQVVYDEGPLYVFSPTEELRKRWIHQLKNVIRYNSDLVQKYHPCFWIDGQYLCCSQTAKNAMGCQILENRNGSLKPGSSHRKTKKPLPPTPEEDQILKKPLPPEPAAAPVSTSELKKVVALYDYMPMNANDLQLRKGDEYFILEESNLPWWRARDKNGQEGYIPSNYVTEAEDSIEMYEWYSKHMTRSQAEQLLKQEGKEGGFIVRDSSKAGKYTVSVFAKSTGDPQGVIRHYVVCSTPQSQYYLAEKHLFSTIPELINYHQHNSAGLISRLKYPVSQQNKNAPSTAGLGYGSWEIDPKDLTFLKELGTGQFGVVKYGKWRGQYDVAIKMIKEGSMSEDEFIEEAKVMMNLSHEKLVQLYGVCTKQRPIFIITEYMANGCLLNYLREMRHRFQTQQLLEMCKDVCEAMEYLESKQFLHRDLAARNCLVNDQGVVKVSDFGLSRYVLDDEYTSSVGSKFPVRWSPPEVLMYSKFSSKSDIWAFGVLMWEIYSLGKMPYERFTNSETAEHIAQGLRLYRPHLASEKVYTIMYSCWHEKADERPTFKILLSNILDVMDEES
Chain of BLK (P51451 whole entry, species assumed): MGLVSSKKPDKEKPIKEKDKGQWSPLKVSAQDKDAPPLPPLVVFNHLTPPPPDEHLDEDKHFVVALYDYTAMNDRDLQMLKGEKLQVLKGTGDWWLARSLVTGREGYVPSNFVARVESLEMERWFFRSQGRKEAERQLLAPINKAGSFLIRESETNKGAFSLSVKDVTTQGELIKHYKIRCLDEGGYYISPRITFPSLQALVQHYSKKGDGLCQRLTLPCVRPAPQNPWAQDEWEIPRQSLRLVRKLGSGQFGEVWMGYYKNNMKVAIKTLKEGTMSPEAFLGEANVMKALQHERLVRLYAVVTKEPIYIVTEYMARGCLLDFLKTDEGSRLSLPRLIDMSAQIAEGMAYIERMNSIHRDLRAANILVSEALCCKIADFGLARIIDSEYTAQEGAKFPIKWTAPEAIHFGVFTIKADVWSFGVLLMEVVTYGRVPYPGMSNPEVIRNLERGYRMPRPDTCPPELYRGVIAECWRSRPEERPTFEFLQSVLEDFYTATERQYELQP
Chain of EGFR (P00533 25-1210, species assumed): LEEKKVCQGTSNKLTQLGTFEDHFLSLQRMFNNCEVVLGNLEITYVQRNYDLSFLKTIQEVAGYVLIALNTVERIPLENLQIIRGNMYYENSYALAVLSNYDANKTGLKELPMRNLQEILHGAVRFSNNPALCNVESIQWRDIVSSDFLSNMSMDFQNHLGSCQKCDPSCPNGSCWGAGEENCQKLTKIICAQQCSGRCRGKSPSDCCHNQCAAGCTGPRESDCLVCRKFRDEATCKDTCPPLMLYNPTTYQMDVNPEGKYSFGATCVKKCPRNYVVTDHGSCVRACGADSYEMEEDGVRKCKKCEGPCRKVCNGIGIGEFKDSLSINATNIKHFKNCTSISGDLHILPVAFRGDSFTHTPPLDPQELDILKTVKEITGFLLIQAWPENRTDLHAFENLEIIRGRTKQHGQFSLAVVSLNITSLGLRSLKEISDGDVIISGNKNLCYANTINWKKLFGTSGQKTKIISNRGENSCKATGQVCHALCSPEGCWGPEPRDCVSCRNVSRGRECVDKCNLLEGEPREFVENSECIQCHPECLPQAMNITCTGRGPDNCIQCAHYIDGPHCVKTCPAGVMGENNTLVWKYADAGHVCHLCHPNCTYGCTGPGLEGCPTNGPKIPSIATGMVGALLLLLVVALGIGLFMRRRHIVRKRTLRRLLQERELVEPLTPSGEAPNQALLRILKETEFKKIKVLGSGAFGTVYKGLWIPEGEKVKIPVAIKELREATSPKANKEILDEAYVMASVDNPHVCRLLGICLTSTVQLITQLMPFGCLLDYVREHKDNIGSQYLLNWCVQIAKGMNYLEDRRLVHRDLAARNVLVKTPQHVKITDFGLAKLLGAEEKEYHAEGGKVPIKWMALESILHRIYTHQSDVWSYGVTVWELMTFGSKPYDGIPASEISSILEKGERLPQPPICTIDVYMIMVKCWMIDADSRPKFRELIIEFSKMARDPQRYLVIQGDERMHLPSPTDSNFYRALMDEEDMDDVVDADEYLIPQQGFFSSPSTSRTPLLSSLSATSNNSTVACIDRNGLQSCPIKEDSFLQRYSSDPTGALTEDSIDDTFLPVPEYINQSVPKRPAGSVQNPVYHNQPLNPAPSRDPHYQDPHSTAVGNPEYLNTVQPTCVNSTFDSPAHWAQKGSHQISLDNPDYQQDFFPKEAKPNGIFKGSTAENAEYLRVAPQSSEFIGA
Chain of LCK (P06239 whole entry, species assumed): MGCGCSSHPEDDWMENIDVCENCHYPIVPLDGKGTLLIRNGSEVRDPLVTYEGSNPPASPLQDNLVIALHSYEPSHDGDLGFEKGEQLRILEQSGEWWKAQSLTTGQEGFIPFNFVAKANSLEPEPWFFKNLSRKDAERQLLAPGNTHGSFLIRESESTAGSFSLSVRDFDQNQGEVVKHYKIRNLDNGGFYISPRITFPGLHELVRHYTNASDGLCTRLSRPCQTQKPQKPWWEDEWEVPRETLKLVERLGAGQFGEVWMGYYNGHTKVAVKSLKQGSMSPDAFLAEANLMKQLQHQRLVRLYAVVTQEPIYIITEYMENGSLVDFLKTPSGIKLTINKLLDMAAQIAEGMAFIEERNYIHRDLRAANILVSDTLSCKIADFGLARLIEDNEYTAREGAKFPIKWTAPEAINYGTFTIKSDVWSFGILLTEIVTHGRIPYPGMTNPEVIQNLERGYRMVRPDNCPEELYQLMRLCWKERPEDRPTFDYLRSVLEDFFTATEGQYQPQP
Chain of LYN (P07948 whole entry, species assumed): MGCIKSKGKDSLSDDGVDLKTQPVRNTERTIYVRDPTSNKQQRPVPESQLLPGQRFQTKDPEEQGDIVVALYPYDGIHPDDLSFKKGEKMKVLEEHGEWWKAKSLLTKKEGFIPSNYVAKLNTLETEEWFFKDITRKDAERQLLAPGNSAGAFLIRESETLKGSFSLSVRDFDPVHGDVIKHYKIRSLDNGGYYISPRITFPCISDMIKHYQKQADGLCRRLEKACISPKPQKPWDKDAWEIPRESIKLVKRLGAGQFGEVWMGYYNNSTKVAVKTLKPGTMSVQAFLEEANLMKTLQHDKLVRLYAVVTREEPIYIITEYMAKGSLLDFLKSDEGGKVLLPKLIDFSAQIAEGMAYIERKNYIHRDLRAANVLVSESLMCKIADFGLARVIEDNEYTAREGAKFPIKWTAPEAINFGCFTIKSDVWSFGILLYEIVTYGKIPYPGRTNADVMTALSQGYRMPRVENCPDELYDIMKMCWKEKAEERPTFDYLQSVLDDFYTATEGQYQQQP

| SMILES | IC50 [1] | IC50 [2] | IC50 ([3]; read-out: BTK IC50) | IC50 ([3]; read-out: BTK Inhibition) | IC50 [4] | IC50 [5] |
| --- | --- | --- | --- | --- | --- | --- |
| C=CC(=O)N1CCC[C@@H](n2nc(-c3ccc(Oc4cccc(OC)c4F)cc3)c3cncc(OC)c32)C1 [Compound 6, (R)-1-(3-(3-(4-(2-fluoro-3-methoxyphenoxy)phenyl)-7-methoxy-1H-pyrazolo[4,3-c]pyridin-1-yl)piperidin-1-yl)prop-2-en-1-one] | 1 to 10 µM | 0.01 to 0.1 µM | < 0.01 µM | < 0.01 µM | 0.1 to 1 µM | 1 to 10 µM |
| C=CC(=O)N1CC[C@@H](n2nc(-c3ccc(Oc4ccccc4)cc3)c3cnccc32)C1 [Compound 1, (R)-1-(3-(3-(4-phenoxyphenyl)-1H-pyrazolo[4,3-c]pyridin-1-yl)pyrrolidin-1-yl)prop-2-en-1-one] | 1 to 10 µM | < 0.01 µM | < 0.01 µM | < 0.01 µM | 0.1 to 1 µM | ≤ 10 µM |
